Test results from patent US20070213291A1, “Therapeutically useful synthetic oligonucleotides” (priority 1999, published 2007).

Columns and labels:
[1] = Melting temperature (Tm) of sequences; assay type: physicochemical
[2] = test system: Jurkat human leukemia T cells; assay: Inhibition of Jurkat human leukemia T cell proliferation (MTT reduction); assay type: cell-based; conditions: for % INHIBITION of Jurkat human leukemia T cell proliferation: 100 μg/ml sequence, 48 h, 2.5×10^5 cells/ml
Summary of the method: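 Jurkat cells at 2.5×10^5 cells/ml exposed to 100 μg/ml of 2–45-base A/C/G/T sequences (0 μg/ml control) for 48 h, 37° C, 5% CO2. Viability by MTT reduction read at 570 nm.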

[3] = test system: D-17 canine osteosarcoma cells; assay: Inhibition of D-17 cell proliferation (MTT); assay type: cell-based; conditions: 100 μg/ml, 48 h, 5×10^5 cells/ml
Procedure: (§1) Cells were seeded in 6 (1 ml/well), 24 (0.5 ml/well) or 96 (0.1 ml/well) well flat-bottom microplates and were maintained at 37° C. in a 5% CO2 atmosphere. Unless stated otherwise, 2.5×10^5 cells/ml were incubated with 0 μg/ml (control) and 100 μg/ml (treated) of 2 to 45 base sequences containing A, C, G and T for 48 h.
(§2) Cell proliferation was measured using dimethylthiazol-diphenyl-tetrazolium (MTT) reduction (Mosman et al. J. Immunol. Methods 65:55, 1983). MTT was measured at a wavelength of 570 nm using a multiplate spectrophotometer reader (ELX800, Bio-TEK Instruments Inc., Winooski, Vt.).
(§3) D-17 canine osteosarcoma cells and CF-51 canine mammary gland cancer cells are solid tumor models. D-17 canine osteosarcoma cells (5×10^5 cells/ml) (Table 20) and CF-51 canine mammary gland cancer cells (5×10^5 cells/ml) (Table 21) were incubated with 6, 9, 17, 27 and 33 base GT-sequences and with a 15 base ACG sequence.

caspase 3 [4] = assay: Active caspase 3 by FITC-conjugated antibody flow cytometry; assay type: cell-based, human; conditions: Jurkat, 72 h, 100 μg/ml, cytometric (FIG. 2A)
Procedure: (§4) To determine caspase activation, control and treated cells are washed, fixed, permeabilized and incubated with an FITC-conjugated antibody that recognizes the active form of the caspase (Pharmingen, San Diego, Calif.) using the conditions recommended by the manufacturer. Fluorescence associated with active caspase 3 is analyzed by flow cytometry on a FACSCALIBUR using the program CellQUEST (Becton Dickinson). Alternatively, caspase activation is determined colorimetrically using an assay based on the cleavage of a caspase-specific peptide conjugated to the color reporter molecule p-nitroanilide, which can be quantitated spectrophotometrically at a wavelength of 405 nm.
(§5) Jurkat T cell leukemia cells were incubated for 72 h with 33 base GT SEQ ID NO:66; 11 base GT SEQ ID NO:81 (bases 1-11 of GT SEQ ID NO:66), 11 base GT SEQ ID NO:82 (bases 12-22 of GT SEQ ID NO:66), 11 base GT SEQ ID NO:83 (bases 23-33 of GT SEQ ID NO:66) and 15 base ACG SEQ ID NO:67. Active caspase 3 (17-22 kDa) was determined using FITC conjugated antibody (Clone: C92-605) as in Example 28.

[5] = test system: Jurkat human leukemia T cells; assay: Apoptosis by phosphatidylserine/annexin V-FITC flow cytometry; assay type: cell-based; conditions: M. phlei murA derived sequences
Summary of the method: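 Jurkat cells were exposed to 3–7-base oligonucleotides (GT, ACGT, AG, GG, AGT, CGT sequences) at 50 μM. Separately, 6-base GT and complementary AC sequences, alone or hybridized 1:1 (10 min, 65 °C), were applied for 24 h. Phosphatidylserine exposure was quantified by flow cytometry with FITC-annexin V.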

[6] = test system: EL-4 murine T lymphoma cells; assay: Inhibition of EL-4 cell proliferation (MTT); assay type: cell-based; conditions: 100 μg/ml, 48 h
Procedure: as §1, §2
EL-4 murine lymphoma T cells are a suspension tumor model. EL-4 murine lymphoma T cells were incubated with 6, 18, 27 and 33 base GT sequences and with a 15 base ACG sequence (Table 18).

[7] = test system: Jurkat human leukemia T cells; assay: Cell cycle stage in Jurkat cells (propidium iodide flow cytometry); assay type: cell-based; conditions: Jurkat; for % of cells in phase: G0/G1 / % of cells in phase: G2/M / % of cells in phase: SE / % of cells in phase: SL / % of cells in phase: SM / Arrest (cell cycle): 24 h, 100 μg/ml; for cell cycle arrest: M. phlei murA derived sequences
Summary of the method: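 Exponentially growing Jurkat cells were exposed for 24 h to 2–45-base A/C/G/T oligonucleotides, or at 1×10^6 cells/ml to 6-base GT and AC strands, alone (heated 10 min, 65 °C) or hybridized 1:1. Detergent-, trypsin-, RNase- and spermine-treated nuclei were propidium iodide-stained and scored for G0/G1, early/mid/late S and G2/M by doublet-discriminating flow cytometry.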

caspase 3 [8] = assay: Caspase 3 activation, colorimetric (p-nitroanilide peptide cleavage); assay type: cell-based, human; conditions: Jurkat, 72 h, 100 μg/ml
Procedure: as §4, §5
Caspase 3 activation also was determined colorimetrically as in Example 28.
Jurkat T cell leukemia cells were incubated for 72 h with 6 base GT SEQ ID NO:25. Caspase 3 activation was determined colorimetrically as in Example 28.

[9] = test system: CF-51 canine mammary gland cancer cells; assay: Inhibition of CF-51 cell proliferation (MTT); assay type: cell-based; conditions: 100 μg/ml, 48 h, 5×10^5 cells/ml
Procedure: as §1, §2, §3

[10] = test system: MCF-7 human breast cancer cells; assay: Inhibition of MCF-7 cell proliferation (MTT); assay type: cell-based
Summary of the method: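 Cells at 2.5×10^5 cells/ml (GT 3- and 6-base series at 5×10^5 cells/ml) treated with 100 μg/ml of 2-45-base oligonucleotide sequences versus untreated control for 48 h at 37 °C, 5% CO2. Proliferation read by MTT reduction at 570 nm.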

[11] = test system: Jurkat human leukemia T cells; assay: NuMA release into supernatant (ELISA); assay type: cell-based; conditions: Jurkat 1×10^6/ml
Summary of the method: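 Jurkat T cells (1×10^6/ml) exposed to GT-containing oligonucleotide sequences, at 50 μM in some experiments, for 24 h in some experiments. NuMA released into the supernatant quantified by commercial ELISA.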

[12] = test system: EL-4 murine T lymphoma cells; assay: EL-4 murine T lymphoma in C57/BL6 mice; assay type: in vivo; conditions: after 4 weeks of treatment, compared with group 1 (saline)
Procedure: EL-4 murine T lymphoma cells are implanted into C57/BL6 mice. The mice are divided into 6 groups of 10 mice. On day 0, group 1 mice receive saline, group 2 mice receive 3 base GT SEQ ID NO:8, group 3 mice receive 6 base SEQ ID NO:25, group 4 mice receive 6 base AG SEQ ID NO:45, group 5 mice receive 18 base GT SEQ ID NO: 18 and group 6 mice receive 27 base GT SEQ ID NO:1. After 4 weeks of treatment, the mice are sacrificed and tumor mass is determined.

[13] = 5-fluorouracil 0.1 μg/ml, alone or with sequence at 1.0 μg/ml
[14] = 5-fluorouracil 1.0 μg/ml, alone or with sequence at 1.0 μg/ml
[15] = 5-fluorouracil 10.0 μg/ml, alone or with sequence at 1.0 μg/ml
[16] = sequence at 1.0 μg/ml, 5-fluorouracil 0.0 μg/ml

GGGTGGGGGTGGGGGTGG [SEQ ID NO:69]
melting temperature (Tm) [1]: 76.3 °C
% INHIBITION of Jurkat human leukemia T cell proliferation [2]: 5%

GGGTGGGGGTGG [SEQ ID NO:68]
melting temperature (Tm) [1]: 56.8 °C
% INHIBITION of Jurkat human leukemia T cell proliferation [2]: 18%

AACCACAAGCCCAAC (DNA, backbone not given here) [SEQ ID NO:67]
% INHIBITION of D-17 canine osteosarcoma cell proliferation [3]: 20%
processing of inactive pro-caspase 3 to active caspase 3 (caspase 3 [4]): did not induce processing of inactive pro-caspase 3 to active caspase 3
% at cells in apoptosis [5]: 0%
% INHIBITION of EL-4 murine T lymphoma cell proliferation [6]: −6%
% INHIBITION of Jurkat human leukemia T cell proliferation [2]: 4%
% of cells in phase: G0/G1 [7]: 39.6%
% of cells in phase: G2/M [7]: 24.6%
% of cells in phase: SE [7]: 13.5%
% of cells in phase: SL [7]: 9.5%
% of cells in phase: SM [7]: 12.8%
Arrest (cell cycle) [7]: None
cell cycle arrest [7]: No
caspase 3 activity greater than in control cells (caspase 3 [8]): approximately the same as in control cells
% INHIBITION of CF-51 canine mammary gland cancer cell proliferation [9]: 20%

GGGTGGGGGTGGGGGTGGGGGTGG (unmodified DNA) [SEQ ID NO:70]
melting temperature (Tm) [1]: 86.3 °C
% INHIBITION of Jurkat human leukemia T cell proliferation [2]: 13%

GTGTGTGTGTGTGTGTGTGTGTGTGTG [SEQ ID NO:1] (chemistry not given here)
% INHIBITION of MCF-7 proliferation, 5-Fluorouracil 0.1 μg/ml [10, 13]: 24%
% INHIBITION of MCF-7 proliferation, 5-Fluorouracil 1.0 μg/ml [10, 14]: 35%
% INHIBITION of MCF-7 proliferation, 5-Fluorouracil 10.0 μg/ml [10, 15]: 33%
potentiation of antineoplastic effect of 5-fluorouracil on MCF-7 cell proliferation ([10]; sequence 1.0 μg/ml, 0.1 μg/ml 5-fluorouracil): did not potentiate
potentiation of antineoplastic effect of tamoxifen on MCF-7 cell proliferation ([10]; sequence 1.0 μg/ml, 0.1 μg/ml tamoxifen): did not potentiate
% INHIBITION of MCF-7 proliferation, 5-Fluorouracil 0.0 μg/ml [10, 16]: 8%
% INHIBITION of MCF-7 proliferation, Tamoxifen 0.0 μg/ml ([10]; sequence at 1.0 μg/ml, tamoxifen 0.0 μg/ml): 8%
% INHIBITION of MCF-7 proliferation, Tamoxifen 0.1 μg/ml ([10]; tamoxifen 0.1 μg/ml, alone or with sequence at 1.0 μg/ml): 19%
% INHIBITION of MCF-7 proliferation, Tamoxifen 1.0 μg/ml ([10]; tamoxifen 1.0 μg/ml, alone or with sequence at 1.0 μg/ml): 24%
% INHIBITION of MCF-7 proliferation, Tamoxifen 10.0 μg/ml ([10]; tamoxifen 10.0 μg/ml, alone or with sequence at 1.0 μg/ml): 20%
% INHIBITION of D-17 canine osteosarcoma cell proliferation [3]: 23%
% INHIBITION of EL-4 murine T lymphoma cell proliferation [6]: 1%
% INHIBITION of Jurkat human leukemia T cell proliferation [2]: 51%
% INHIBITION of Jurkat proliferation, 5-Fluorouracil 0.1 μg/ml [2, 13]: 15%
% INHIBITION of Jurkat proliferation, 5-Fluorouracil 1.0 μg/ml [2, 14]: 25%
% INHIBITION of Jurkat proliferation, 5-Fluorouracil 10.0 μg/ml [2, 15]: 41%
% INHIBITION of Jurkat proliferation, Cisplatin 0.1 μg/ml ([2]; cisplatin 0.1 μg/ml, alone or with sequence at 1.0 μg/ml): 18%
% INHIBITION of Jurkat proliferation, Cisplatin 1.0 μg/ml ([2]; cisplatin 1.0 μg/ml, alone or with sequence at 1.0 μg/ml): 35%
% INHIBITION of Jurkat proliferation, Cisplatin 10.0 μg/ml ([2]; cisplatin 10.0 μg/ml, alone or with sequence at 1.0 μg/ml): 76%
potentiation of antineoplastic effect of 5-fluorouracil on Jurkat T cell proliferation ([2]; sequence 1.0 μg/ml, 0.1 and 1.0 μg/ml 5-fluorouracil): potentiated
% INHIBITION of Jurkat proliferation, 5-Fluorouracil 0.0 μg/ml [2, 16]: 3%
% INHIBITION of Jurkat proliferation, Cisplatin 0.0 μg/ml ([2]; sequence at 1.0 μg/ml, cisplatin 0.0 μg/ml): 3%
% of cells in phase: G0/G1 [7]: 40.6%
% of cells in phase: G2/M [7]: 0.3%
% of cells in phase: SE [7]: 35.6%
% of cells in phase: SL [7]: 9.3%
% of cells in phase: SM [7]: 14.2%
Arrest (cell cycle) [7]: End SE
% NUMA RELEASED [11]: 22%
tumor mass [12]: less tumor mass than group 1 mice
% INHIBITION of CF-51 canine mammary gland cancer cell proliferation [9]: 23%

GGTTTTGTTTG (unmodified DNA) [SEQ ID NO:82]
processing of inactive pro-caspase 3 to active caspase 3 (caspase 3 [4]): induced processing of inactive pro-caspase 3 to active caspase 3
% at cells in apoptosis [5]: 25%
% INHIBITION of Jurkat human leukemia T cell proliferation [2]: 20%
proliferation, cell cycle arrest and apoptosis of Jurkat T cells (summary in words) ([2]; M. phlei murA derived sequences): inhibited proliferation of, induced cell cycle arrest in and induced apoptosis of Jurkat T cells
cell cycle arrest [7]: End SE
caspase 3 activity greater than in control cells (caspase 3 [8]): 100%

GTGTGTTTGGTGGTTTTGTTTGTTGTTTTTTTG (DNA, backbone not given here) [SEQ ID NO:66]
% INHIBITION of D-17 canine osteosarcoma cell proliferation [3]: 23%
processing of inactive pro-caspase 3 to active caspase 3 (caspase 3 [4]): induced processing of inactive pro-caspase 3 to active caspase 3
% INHIBITION of EL-4 murine T lymphoma cell proliferation [6]: −1%
caspase 3 activity greater than in control cells (caspase 3 [8]): 105%
% INHIBITION of CF-51 canine mammary gland cancer cell proliferation [9]: 23%
